Reference: patent publication US11446315B2, “Enhancement of CD47 blockade therapy by proteasome inhibitors” (PF Argentum IP Holdings LLC, priority 2016, dated 2022)

How the values were obtained:
Format in all cases: cell-based, human
[1] = test system: MM1.S multiple myeloma (MM) cell line; assay: Macrophage phagocytosis assay, MM1.S tumor cells pre-cultured with proteasome inhibitor (FIGS. 3A-3F); conditions: MM1.S cultured 48 hours in bortezomib (10 nM), carfilzomib (10 nM) or ixazomib (25 nM); CD47 blockade drug at 100 nM, 2 hours co-culture; untreated vs proteasome inhibitor treated tumor cells, unpaired t-test
Description: (§1) FIGS. 3A-3F show the effect of proteasome inhibition on phagocytosis mediated by CD47 blockade, from an experiment supplemental to that represented in FIGS. 1A-1B and 2A-2B. The diffuse large cell lymphoma (DLBCL) cell line SU-DHL-6 and the multiple myeloma (MM) cell line MM1.S were cultured in the presence or absence of the proteasome inhibitors bortezomib (10 nM), carfilzomib (10 nM) or ixazomib (25 nM) for 48 hours. Cells were thereafter washed; macrophages and SIRPαFc proteins, CD47 monoclonal antibody (CD47 mAb) or Control Fc (at 100 nM) were added, and the mixture was then subjected to the phagocytosis assay as described infra.
(§2) To generate the results represented in FIGS. 3A-3F, macrophages were prepared from human peripheral blood mononuclear cells (PBMCs) obtained from healthy donors (BioreclamationIVT); informed consent was obtained from all donors. CD14+ monocytes were isolated by positive selection using the EasySep® human monocyte isolation kit (Stemcell Technologies). Monocytes were differentiated into macrophages by culturing the cells in X-VIVO 15 media (Lonza) supplemented with human m-CSF (PeproTech) for 10 days. Macrophages were primed with human IFNγ (PeproTech) one day prior to the phagocytosis assay. 48 hours prior to the phagocytosis assay, bortezomib (10 nM), carfilzomib (10 nM) or ixazomib (25 nM) were added to tumor cells. On the day of the phagocytosis assay, tumor cells (MM1.S or SU-DHL-6) were labeled with Violet Proliferation Dye 450 (BD Biosciences) and cultured with IFNγ-primed macrophages. Macrophages and tumor cells were co-cultured for 2 hours in the presence of 100 nM SIRPαFc (V region of human SIRPα variant 2 fused with IgG1 Fc), SIRPαFc (V region of human SIRPα variant 2 fused with IgG4 Fc), vSIRPαFc (high affinity CV1 variant of V region of human SIRPα fused with mutated IgG4) [SEQ ID No. 12], CD47 monoclonal antibody B6H12 [SEQ ID Nos. 13 and 14] or Control Fc (wild type human IgG4 with stabilized hinge). Cells were subsequently stained with a viability dye, APC-conjugated anti-human CD14 (61D3, eBioscience), and PE-conjugated anti-human CD11b (ICRF44, eBioscience). Macrophages were identified as live, single, CD14+CD11b+ cells. Doublets were excluded by SSC-W and SSC-H discrimination. Percent phagocytosis was assessed as the percent of macrophages that were VPD450+. Unpaired t-tests comparing the percentage of phagocytosis of untreated vs proteasome inhibitor treated tumor cells were performed (*P≤0.05, **P≤0.01, ***P≤0.001).

[2] = test system: SU-DHL-6 diffuse large cell lymphoma (DLBCL) cell line; assay: Macrophage phagocytosis assay, SU-DHL-6 tumor cells pre-cultured with proteasome inhibitor (FIGS. 3A-3F); conditions: SU-DHL-6 cultured 48 hours in bortezomib (10 nM), carfilzomib (10 nM) or ixazomib (25 nM); CD47 blockade drug at 100 nM, 2 hours co-culture; untreated vs proteasome inhibitor treated tumor cells, unpaired t-test
Description: as §1, §2

[3] = test system: H929 multiple myeloma cell line; assay: Macrophage phagocytosis assay, H929 tumor cells pre-cultured with proteasome inhibitor (FIGS. 1B, 2B)
Description: (§3) FIGS. 1A and 1B show results when the multiple myeloma cell lines MM1s and H929 are cultured in the presence of the proteasome inhibitor bortezomib (at either 1, 5 or 10 nM) for 48 hours. The 0 result represents phagocytosis of cells that were not treated with bortezomib. Cells are then washed; macrophages and SIRPαFc (at 1, 5 or 100 nM) or Control Fc are added and the mixture is then subjected to the phagocytosis assay described herein.
(§4) FIGS. 2A and 2B show results from an experiment in which bortezomib is replaced by the proteasome inhibitor carfilzomib, which is then investigated as described in FIGS. 1A-1B. The 0 result represents phagocytosis of cells that were not treated with carfilzomib.
(§5) To generate the results represented in FIGS. 1A-1B and 2A-2B, heparinized whole blood was obtained from normal healthy human donors (Biological Specialty Corporation) and informed consent was obtained from all donors. Peripheral blood mononuclear cells (PBMCs) were isolated over Ficoll-Paque Plus density gradient (GE Healthcare) and CD14+ monocytes were isolated from PBMCs by positive selection using CD14 antibody-coated MicroBead separation (Miltenyi Biotec). […] Phagocytosis was assessed as % VPD450+ cells of live, single CD14+CD11b+macrophages by flow cytometry. […]

[4] = test system: MM1s multiple myeloma cell line; assay: Macrophage phagocytosis assay, MM1s tumor cells pre-cultured with proteasome inhibitor (FIGS. 1A, 2A)
Description: as §3, §4, §5

Molecule	Percent phagocytosis mediated by CD47 blockade (percent of macrophages VPD450+) [1]	Percent phagocytosis mediated by CD47 blockade (percent of macrophages VPD450+) [2]	SIRPαFc-mediated phagocytosis (% VPD450+ of live, single CD14+CD11b+ macrophages) ([3]; H929 cultured in bortezomib (1, 5 or 10 nM) for 48 hours, then macrophages and SIRPαFc (1, 5 or 100 nM), versus cells not treated with bortezomib)	SIRPαFc-mediated phagocytosis (% VPD450+ of live, single CD14+CD11b+ macrophages) ([4]; MM1s cultured in bortezomib (1, 5 or 10 nM) for 48 hours, then macrophages and SIRPαFc (1, 5 or 100 nM), versus cells not treated with bortezomib)	SIRPαFc-mediated phagocytosis (% VPD450+ of live, single CD14+CD11b+ macrophages) ([3]; H929 cultured in 10 nM carfilzomib for 48 hours, at all concentrations of SIRPαFc tested (1, 5 or 100 nM), versus cells not treated with carfilzomib)	SIRPαFc-mediated phagocytosis (% VPD450+ of live, single CD14+CD11b+ macrophages) ([4]; MM1s cultured in 10 nM carfilzomib for 48 hours, at all concentrations of SIRPαFc tested (1, 5 or 100 nM), versus cells not treated with carfilzomib)
CC(C)C[C@H](NC(=O)CNC(=O)c1cc(Cl)ccc1Cl)B(O)O [ixazomib]	significantly increased SIRPαFc-mediated phagocytosis or CD47 mAb-mediated phagocytosis	significantly increased SIRPαFc-mediated phagocytosis or CD47 mAb-mediated phagocytosis	–	–	–	–
SIRPαFc (V region of human SIRPα variant 2 fused with IgG4 Fc): V region of human SIRPα variant 2 fused with IgG4 Fc	significant increase in phagocytosis	significant increase in phagocytosis	–	–	–	–
CC(C)C[C@H](NC(=O)[C@H](Cc1ccccc1)NC(=O)c1cnccn1)B(O)O [bortezomib]	significantly increased SIRPαFc-mediated phagocytosis or CD47 mAb-mediated phagocytosis	significantly increased SIRPαFc-mediated phagocytosis or CD47 mAb-mediated phagocytosis	increased SIRPαFc-mediated phagocytosis	increased SIRPαFc-mediated phagocytosis	–	–
CC(C)C[C@H](NC(=O)[C@H](CCc1ccccc1)NC(=O)CN1CCOCC1)C(=O)N[C@@H](Cc1ccccc1)C(=O)N[C@@H](CC(C)C)C(=O)[C@@]1(C)CO1 [carfilzomib]	significantly increased SIRPαFc-mediated phagocytosis or CD47 mAb-mediated phagocytosis	significantly increased SIRPαFc-mediated phagocytosis or CD47 mAb-mediated phagocytosis	–	–	significant increase in SIRPαFc-mediated phagocytosis	significant increase in SIRPαFc-mediated phagocytosis
vSIRPαFc: high affinity CV1 variant of V region of human SIRPα fused with mutated IgG4, SEQ ID No. 12 (protein, listed as Homo sapiens) EEELQIIQPDKSVSVAAGESAILHCTITSLFPVGPIQWFRGAGPARVLIYNQRQGPFPRVTTVSETTKRENMDFSISISNITPADAGTYYCIKFRKGSPDTEFKSGAGTELSVRAKPSESKYGPPCPPCPAPPVAGPSVFLFPPKPKDTLMISRTPEVTCVVVDVSQEDPEVQFNWYVDGVEVHNAKTKPREEQFNSTYRVVSVLTVLHQDWLNGKEYKCKVSNKGLPSSIEKTISKAKGQPREPQVYTLPPSQEEMTKNQVSLTCLVKGFYPSDIAVEWESNGQPENNYKTTPPVLDSDGSFFLYSRLTVDKSRWQEGNVFSCSVMHEALHNHYTQKSLSLSLGK	significant increase in phagocytosis	significant increase in phagocytosis	–	–	–	–
CD47 mAb: CD47 monoclonal antibody B6H12, variable regions SEQ ID Nos. 13 and 14 (antibody, V domains shown, Murine) VH: EVQLVESGGDLVKPGGSLKLSCAASGFTFSGYGMSWVRQTPDKRLEWVATITSGGTYTYYPDSVKGRFTISRDNAKNTLYLQIDSLKSEDTAIYFCARSLAGNAMDYWGQGTSVTVSS VL: DIVMTQSPATLSVTPGDRVSLSCRASQTISDYLHWYQQKSHESPRLLIKFASQSISGIPSRFSGSGSGSDFTLSINSVEPEDVGVYYCQNGHGFPRTFGGGTKLEIK	significant increase in phagocytosis	significant increase in phagocytosis	–	–	–	–
